From article PMC6896740, “Safety, tolerability, pharmacokinetics, and pharmacodynamics of PF-06650833, a selective interleukin-1 receptor-associated kinase 4 (IRAK4) inhibitor, in single and multiple ascending dose randomized phase 1 studies in healthy subjects” (Arthritis Research & Therapy, 2019)
Like-named read-outs stand apart in the source and are kept apart here.

Experiment: Study 2 (MAD) plasma and urine pharmacokinetics
Assay type: in vivo, human
Settings: for AUC: read-out: AUCtau, geometric mean (%CV); for Cmax: read-out: Cmax, geometric mean (%CV); for Tmax: read-out: Tmax, median (range)
Description: Subjects were enrolled sequentially into seven cohorts. Within each cohort, eight subjects and two subjects were randomized to receive PF-06650833 and placebo, respectively. Doses for all cohorts were administered after a standard (not high-fat) meal. Multiple dosing regimens (once daily [QD] 24 h apart, twice daily [BID] 12 h apart, three times per day [TID] 8 h apart, and four times per day [QID] 6 h apart) were used to provide required total daily doses. In the final dosing scheme, multiple oral doses of PF-06650833 IR suspension formulations at 25, 100, 250, and 750 mg BID and 1000 mg QID were administered in cohorts 1–5. PF-06650833 IR 330 mg TID (cohort 6) and an MR tablet at a dose of 300 mg QD (cohort 7) were also evaluated (see Fig. 1b for final dosing scheme).
For both studies, samples of blood (and urine in study 2) were taken for evaluation of PK/PD parameters (see Additional file 1: Supplemental Methods). PK samples were obtained at the nominal time relative to dosing (± 10%). Plasma and urine samples were analyzed using validated, sensitive, and specific liquid chromatography tandem mass spectrometric methods (at Pfizer Inc., Groton, CT, USA, for study 1 and at Worldwide Pharmacokinetics, Dynamics and Metabolism, Cambridge, MA, USA, for study 2). The lower limit of quantification for PF-06650833 in plasma was 0.0500 ng/mL. The lower limit of quantification for PF-06650833 in urine was 1.00 ng/mL. Serum samples were also analyzed for hsCRP, and plasma samples were analyzed for 4β-hydroxycholesterol and cholesterol.
PK parameters were calculated using non-compartmental analysis of concentration-time data. For study 1 only, data from cohort 1 (period 4 [IR 30 mg] versus period 5 [IR 30 mg + food]) and cohort 3 (period 2 [MR 30 mg] versus period 3 [MR 30 mg + food]) were used to estimate the effect of food intake. Cmax and AUC were calculated for each subject and treatment, with and without food, after which a within-subject difference could be found between fed (high-fat meal) and fasted doses. Analysis of covariance was used to model these within-subject differences and to calculate 95% confidence intervals (CIs) for the differences for each dose (IR 30 mg and MR 30 mg). For study 2 only, the amounts of PF-06650833 in urine and renal clearance were listed and summarized descriptively. As part of the routine safety laboratory monitoring, the presence of any atypical crystals in urine specimens was semi-quantitatively assessed microscopically by typical histopathologic methods and scored as numbers of crystals per high power field (hpf); higher abundance (moderate or many) was defined as ≥ 15/hpf. No formal interim analyses were conducted.
22 In Study 2, pre-dose blood samples were collected for PK analysis on days 1, 2, 4, 7, 10, and
23 14. Post-dose samples were collected for PK analysis on days 1 and 14 at 0.5, 1, 2, 4, 6, 8, 10,
24 12, and 16 hours post-dose; on day 7 at 1, 2, 4, 6, 8, and 12 hours post-dose; and on days 15,
27 hours post-dose. […]
32 Blood samples (2 mL, to obtain ≥0.5 mL plasma) were collected in K2EDTA tubes
33 (dipotassium ethylenediaminetetraacetic acid) and centrifuged at ~1700 x g for 10 minutes at
34 4 °C, with plasma then stored in polypropylene tubes at -70 °C within 1 hour of collection.
35 Plasma samples were analyzed using a validated, sensitive , and specific liquid
36 chromatography tandem mass spectrometric method (LC -MS; at Pfizer Inc, Groton, CT, USA
37 for Study 1; and at Worldwide Pharmaco kinetics, Dynamics, and Metabolism, Cambridge,
38 MA, USA for Study 2). The lower limit of quantification (LLOQ) for PF-06650833 in plasma
39 was 0.0500 ng/mL. Between-day assay accuracy values were also calculated (not shown).
40 In Study 2 only, urine samples we re collected in aliquots pre-dose. Cumulative 0–12-hour
41 and 12–24-hour urine samples were also collected as follows: from day 1 after morning
42 dosing to day 2 before morning dosing (and before breakfast) for cohorts 6 –8 only; and from […]

[1] = IR 25 mg BID, day 14, fed (standard meal)
[2] = IR 100 mg BID, day 14, fed (standard meal)
[3] = IR 250 mg BID, day 14, fed (standard meal)
[4] = IR 330 mg TID, day 14, fed (standard meal)
[5] = IR 750 mg BID, day 14, fed (standard meal)
[6] = MR 300 mg QD, day 14, fed (standard meal)
[7] = human, plasma, oral, 25 mg, IR 25 mg BID, day 1, fed (standard meal)
[8] = human, plasma, oral, 25 mg, IR 25 mg BID, day 14, fed (standard meal)
[9] = human, plasma, oral, 100 mg, IR 100 mg BID, day 1, fed (standard meal)
[10] = human, plasma, oral, 100 mg, IR 100 mg BID, day 14, fed (standard meal)
[11] = human, plasma, oral, 250 mg, IR 250 mg BID, day 1, fed (standard meal)
[12] = human, plasma, oral, 250 mg, IR 250 mg BID, day 14, fed (standard meal)
[13] = human, plasma, oral, 300 mg, MR 300 mg QD, day 1, fed (standard meal)
[14] = human, plasma, oral, 300 mg, MR 300 mg QD, day 14, fed (standard meal)
[15] = human, plasma, oral, 330 mg, IR 330 mg TID, day 1, fed (standard meal)
[16] = human, plasma, oral, 330 mg, IR 330 mg TID, day 14, fed (standard meal)
[17] = human, plasma, oral, 750 mg, IR 750 mg BID, day 1, fed (standard meal)
[18] = human, plasma, oral, 750 mg, IR 750 mg BID, day 14, fed (standard meal)
[19] = human, plasma, oral, 1000 mg, IR 1000 mg QID, day 1, fed (standard meal)

CC[C@@H]1[C@H](F)C(=O)N[C@@H]1COc1nccc2cc(C(N)=O)c(OC)cc12 [PF-06650833, 1-{[(2S,3S,4S)-3-Ethyl-4-fluoro-5-oxopyrrolidin-2-yl]methoxy}-7-methoxyisoquinoline-6-carboxamide]
Tmax, median (range) (IR 25 mg BID, day 1, fed (standard meal)): 2.03 (1.00–4.00) h | Ae24% (drug recovered unchanged in urine up to 24 h), geometric mean (%CV) [1]: 0.7288 (27) % | CL/F, geometric mean (%CV) [1]: 122.4 (26) L/h | Cav, geometric mean (%CV) [1]: 17.03 (26) ng/mL | Cmin, geometric mean (%CV) [1]: 4.064 (46) ng/mL | PTF (peak-trough fluctuation), geometric mean (%CV) [1]: 1.868 (21) | Rac (observed accumulation ratio), geometric mean (%CV) [1]: 1.250 (19) | Ae24% (drug recovered unchanged in urine up to 24 h), geometric mean (%CV) [2]: 0.9414 (29) % | CL/F, geometric mean (%CV) [2]: 128.9 (16) L/h | Cav, geometric mean (%CV) [2]: 64.72 (16) ng/mL | Cmin, geometric mean (%CV) [2]: 14.13 (40) ng/mL | PTF (peak-trough fluctuation), geometric mean (%CV) [2]: 1.740 (16) | Rac (observed accumulation ratio), geometric mean (%CV) [2]: 1.373 (23) | Ae24% (drug recovered unchanged in urine up to 24 h), geometric mean (%CV) [3]: 0.4822 (53) % | CL/F, geometric mean (%CV) [3]: 183.7 (39) L/h | Cav, geometric mean (%CV) [3]: 113.3 (39) ng/mL | Cmin, geometric mean (%CV) [3]: 20.07 (76) ng/mL | PTF (peak-trough fluctuation), geometric mean (%CV) [3]: 1.911 (14) | Rac (observed accumulation ratio), geometric mean (%CV) [3]: 1.009 (13) | Ae24% (drug recovered unchanged in urine up to 24 h), geometric mean (%CV) [4]: 0.6372 (34) % | CL/F, geometric mean (%CV) [4]: 206.1 (28) L/h | Cav, geometric mean (%CV) [4]: 200.1 (28) ng/mL | Cmin, geometric mean (%CV) [4]: 51.48 (68) ng/mL | PTF (peak-trough fluctuation), geometric mean (%CV) [4]: 1.307 (18) | Rac (observed accumulation ratio), geometric mean (%CV) [4]: 1.068 (26) | Ae24% (drug recovered unchanged in urine up to 24 h), geometric mean (%CV) [5]: 0.4885 (24) % | CL/F, geometric mean (%CV) [5]: 302.9 (24) L/h | CLr (renal clearance), geometric mean (%CV) [5]: 23.14 (19) mL/min | Cav, geometric mean (%CV) [5]: 206.3 (24) ng/mL | Cmin, geometric mean (%CV) [5]: 33.07 (50) ng/mL | PTF (peak-trough fluctuation), geometric mean (%CV) [5]: 1.868 (12) | Rac (observed accumulation ratio), geometric mean (%CV) [5]: 0.9377 (32) | Ae24% (drug recovered unchanged in urine up to 24 h), geometric mean (%CV) [6]: 0.300 (70) % | CL/F, geometric mean (%CV) [6]: 308.0 (65) L/h | Cav, geometric mean (%CV) [6]: 40.62 (65) ng/mL | Cmin, geometric mean (%CV) [6]: 6.471 (55) ng/mL | PTF (peak-trough fluctuation), geometric mean (%CV) [6]: 3.383 (37) | Rac (observed accumulation ratio), geometric mean (%CV) [6]: 0.8985 (24) | Dose recovered unchanged in urine (all dose groups): Less than 1% | Steady state reached by (all dose groups, based on Cmin): ≤ 4 days | AUC [7]: 164 ng·h/mL | Cmax [7]: 30 ng/mL | Tmax [7]: 2 h | AUC [8]: 204 ng·h/mL | Cmax [8]: 36.2 ng/mL | Tmax [8]: 2 h | AUC [9]: 566 ng·h/mL | Cmax [9]: 102 ng/mL | Tmax [9]: 2.03 h | AUC [10]: 776 ng·h/mL | Cmax [10]: 128 ng/mL | Tmax [10]: 2.02 h | AUC [11]: 1350 ng·h/mL | Cmax [11]: 226 ng/mL | Tmax [11]: 4 h | AUC [12]: 1360 ng·h/mL | Cmax [12]: 238 ng/mL | Tmax [12]: 2.02 h | AUC [13]: 1150 ng·h/mL | Cmax [13]: 149 ng/mL | Tmax [13]: 4 h | AUC [14]: 975 ng·h/mL | Cmax [14]: 147 ng/mL | Tmax [14]: 4 h | AUC [15]: 1500 ng·h/mL | Cmax [15]: 309 ng/mL | Tmax [15]: 2.03 h | AUC [16]: 1600 ng·h/mL | Cmax [16]: 318 ng/mL | Tmax [16]: 2 h | AUC [17]: 2580 ng·h/mL | Cmax [17]: 470 ng/mL | Tmax [17]: 3.12 h | AUC [18]: 2480 ng·h/mL | Cmax [18]: 421 ng/mL | Tmax [18]: 2 h | AUC [19]: 2010 ng·h/mL | Cmax [19]: 517 ng/mL | Tmax [19]: 4 h | Tmax at 1 day (human, plasma, oral, day 1, range across IR 25 to 1000 mg, standard meal, read-out: Median Tmax): 2 to 4 h | Tmax at 14 day (human, plasma, oral, day 14, IR formulations, standard meal, read-out: Median Tmax): 2 h | half-life (human, plasma, oral, range for IR 750 mg BID, IR 330 mg TID, MR 300 mg QD, read-out: Mean half-life at steady state): 25.4 to 31.4 h | Vd/F (human, plasma, oral, IR 25 mg BID, day 14, fed (standard meal), read-out: Vz/F, geometric mean (%CV)): 9650 L | Vd/F (human, plasma, oral, IR 100 mg BID, day 14, fed (standard meal), read-out: Vz/F, geometric mean (%CV)): 8060 L | Vd/F (human, plasma, oral, IR 250 mg BID, day 14, fed (standard meal), read-out: Vz/F, geometric mean (%CV)): 10200 L | Vd/F (human, plasma, oral, IR 330 mg TID, day 14, fed (standard meal), read-out: Vz/F, geometric mean (%CV)): 10100 L | Vd/F (human, plasma, oral, IR 750 mg BID, day 14, fed (standard meal), read-out: Vz/F, geometric mean (%CV)): 13200 L | Vd/F at 14 day (human, plasma, oral, MR 300 mg QD, day 14, fed (standard meal), read-out: Vz/F, geometric mean (%CV)): 11600 L | Vd at 14 day (human, plasma, oral, range across all dosages, day 14, read-out: Mean volume of distribution): 8060 to 13200 L | CL renal (human, urine and plasma, oral, 300 mg, MR 300 mg QD, day 14, fed (standard meal), read-out: CLr (renal clearance), geometric mean (%CV)): 15.4 mL/min | CL renal (human, urine and plasma, oral, 330 mg, IR 330 mg TID, day 14, fed (standard meal), read-out: CLr (renal clearance), geometric mean (%CV)): 18.8 mL/min | CL renal (human, urine and plasma, oral, range for IR < 750 mg and MR 300 mg, read-out: Renal clearance): 14 to 23 mL/min | CL renal at 14 day (human, urine, oral, 25 mg, IR 25 mg BID, day 14, fed (standard meal), read-out: CLr (renal clearance), geometric mean (%CV)): 13.6 mL/min | CL renal at 14 day (human, urine, oral, 100 mg, IR 100 mg BID, day 14, fed (standard meal), read-out: CLr (renal clearance), geometric mean (%CV)): 18.5 mL/min | CL renal at 14 day (human, urine, oral, 250 mg, IR 250 mg BID, day 14, fed (standard meal), read-out: CLr (renal clearance), geometric mean (%CV)): 13.9 mL/min | CL renal (human, urine, oral, 750 mg, IR 750 mg BID, day 14, fed (standard meal), read-out: CLr (renal clearance), geometric mean (%CV)): 23 mL/min | CL renal (human, urine, oral, range for IR 25 mg BID, IR 330 mg TID and MR 300 mg QD, read-out: Renal clearance): 14 to 19 mL/min
